Source: PMC6713165, “Identification of 1H-pyrazolo[3,4-b]pyridine derivatives as potent ALK-L1196M inhibitors” (Journal of Enzyme Inhibition and Medicinal Chemistry, 2019)
Where two headings read alike, the source gives them in different places.

How the values were obtained:
[1] = biological target: ALK-wt (Homo sapiens, UniProt Q9UM73); test: Radiometric biochemical kinase assay, ALK-wt; settings: radiometric kinase assay, 10 µM ATP; for IC50: read-out: IC50 ALK-wt
Protocol: (§1) Biochemical kinase assay was performed by methods previously reported. Kinase reactions of all test compounds except 10g were carried out at 10 µM ATP. Kinase reaction of 10g was performed at three different concentrations of ATP (10/50/100 µM).

[2] = biological target: ALK-L1196M (Homo sapiens, UniProt Q9UM73, L1196M); test: Radiometric biochemical kinase assay, ALK-L1196M; settings: for IC50: radiometric kinase assay, 10 µM ATP
Chain of ALK-L1196M (Q9UM73 19-1620 L1196M): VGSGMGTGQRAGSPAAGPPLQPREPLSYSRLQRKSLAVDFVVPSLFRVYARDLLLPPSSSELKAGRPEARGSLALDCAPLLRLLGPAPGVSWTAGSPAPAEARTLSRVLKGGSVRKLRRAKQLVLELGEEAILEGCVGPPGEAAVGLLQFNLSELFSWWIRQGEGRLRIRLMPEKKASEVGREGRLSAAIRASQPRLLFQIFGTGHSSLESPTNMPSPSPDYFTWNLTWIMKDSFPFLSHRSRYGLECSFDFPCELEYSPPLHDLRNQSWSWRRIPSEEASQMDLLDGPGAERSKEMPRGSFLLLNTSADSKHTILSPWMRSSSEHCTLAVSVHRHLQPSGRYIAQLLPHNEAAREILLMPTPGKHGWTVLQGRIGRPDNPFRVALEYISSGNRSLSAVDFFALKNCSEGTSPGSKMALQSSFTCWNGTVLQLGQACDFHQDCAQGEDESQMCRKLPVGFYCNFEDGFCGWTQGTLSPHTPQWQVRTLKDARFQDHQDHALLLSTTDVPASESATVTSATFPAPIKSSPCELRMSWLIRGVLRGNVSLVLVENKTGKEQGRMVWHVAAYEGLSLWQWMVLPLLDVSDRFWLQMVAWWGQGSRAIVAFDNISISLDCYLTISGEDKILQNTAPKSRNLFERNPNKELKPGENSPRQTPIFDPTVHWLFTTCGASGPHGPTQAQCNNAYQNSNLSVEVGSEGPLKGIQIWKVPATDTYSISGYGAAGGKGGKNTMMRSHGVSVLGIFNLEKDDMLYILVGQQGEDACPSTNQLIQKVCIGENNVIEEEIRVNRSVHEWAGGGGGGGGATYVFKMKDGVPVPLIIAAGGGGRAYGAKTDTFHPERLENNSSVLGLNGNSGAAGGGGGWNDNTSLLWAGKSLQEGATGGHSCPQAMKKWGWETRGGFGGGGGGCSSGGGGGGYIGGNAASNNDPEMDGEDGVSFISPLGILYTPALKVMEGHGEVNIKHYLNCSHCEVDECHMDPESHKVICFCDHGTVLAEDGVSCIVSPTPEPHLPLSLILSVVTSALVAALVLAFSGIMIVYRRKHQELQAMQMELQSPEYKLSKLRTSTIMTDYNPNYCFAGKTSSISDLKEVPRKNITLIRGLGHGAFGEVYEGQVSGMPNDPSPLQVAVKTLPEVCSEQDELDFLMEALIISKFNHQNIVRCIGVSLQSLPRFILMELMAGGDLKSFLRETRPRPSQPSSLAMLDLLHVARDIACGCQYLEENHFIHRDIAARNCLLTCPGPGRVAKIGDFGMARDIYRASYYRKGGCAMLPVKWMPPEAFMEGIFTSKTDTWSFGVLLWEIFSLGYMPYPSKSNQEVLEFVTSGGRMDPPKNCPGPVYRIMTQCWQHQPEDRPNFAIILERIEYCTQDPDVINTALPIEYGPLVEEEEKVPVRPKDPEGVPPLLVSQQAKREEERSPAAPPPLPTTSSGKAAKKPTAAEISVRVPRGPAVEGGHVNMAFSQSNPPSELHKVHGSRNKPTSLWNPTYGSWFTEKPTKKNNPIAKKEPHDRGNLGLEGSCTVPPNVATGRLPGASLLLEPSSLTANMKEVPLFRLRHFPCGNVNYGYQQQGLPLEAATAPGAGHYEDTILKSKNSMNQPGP
Protocol: as §1

[3] = system: H2228 (EML4-ALK) cells; test: Anti-proliferation assay (CTG), H2228; type: cell-based; settings: mean ± SD of three independent experiments; for GI50 H2228 (EML4-ALK): 72 h; for GI50: Homo sapiens, NCI-H2228, 72 h
Protocol: (§2) ALK wt-TEL, ALK L1196M-TEL transformed Ba/F3 and H2228 cell lines were cultured in RPMI1640 (Welgene, # LM011-01). […] Parental Ba/F3 cells were cultured in RPMI1640 media supplemented with 10% foetal bovine serum and 1% penicillin/streptomycin solution in the presence of IL-3. The cells were maintained in a humidified atmosphere containing 5% CO2 at 37 °C.
(§3) Cells (ALK wt-TEL, ALK L1196M-TEL and Parental Ba/F3: 1 × 10^4, H2228: 5 × 10^3) were plated in 96 well tissue culture plates. Each compound was added to each well at 10 dose points of three-fold serial dilution in DMSO. After treatment with each compound for 72 h, CTG assay solution (Promega, # G7572) was added to each well.

[4] = system: Parental Ba/F3 cells; test: Anti-proliferation assay (CTG), parental Ba/F3; type: cell-based; settings: with IL-3, mean ± SD of three independent experiments; for GI50 Ba/F3 cell lines Parental: 72 h; for GI50: Mus musculus, BaF3, 72 h, read-out: GI50 Ba/F3 cell lines Parental
Protocol: as §2, §3

[5] = system: ALK wt-TEL Ba/F3 cells; test: Anti-proliferation assay (CTG), ALK wt-TEL Ba/F3; type: cell-based; settings: 72 h, CTG, mean ± SD of three independent experiments; for GI50: Mus musculus, BaF3, read-out: GI50 Ba/F3 cell lines ALK wt-TEL
Protocol: as §2, §3

[6] = system: ALK L1196M-TEL Ba/F3 cells; test: Anti-proliferation assay (CTG), ALK L1196M-TEL Ba/F3; type: cell-based; settings: for GI50: Mus musculus, BaF3, read-out: GI50 Ba/F3 cell lines ALKL1196M-TEL; for differential cytotoxicity against ALK-L1196M Ba/F3 cells vs. parental Ba/F3 cells compared with crizotinib: in words
Protocol: as §2, §3

[7] = Permeability assessment using Caco-2 cells; type: in vitro ADME, human; settings: human; for efflux ratio at 120 min, 10 µM / Papp B→A at 120 min, 10 µM: Caco-2, 10 µM
Protocol: (§4) Stock solutions (10 mM) of reference compounds and 10g were diluted to a concentration of 10 µM with the transport buffer (HBSS + 1%BSA) and the test compounds were applied to the apical or basolateral side of the cell monolayer. […] In addition, the efflux ratio of each compound was also determined. Reference compounds and 10g were quantified by LC-MS/MS analysis based on the peak area ratio of analyte/the internal standard.

[8] = system: Caco-2 cells; test: Permeability assessment using Caco-2 cells; type: in vitro ADME, human; settings: P-gp substrate status from efflux ratio
Protocol: as §4

[9] = 72 h, CTG, mean ± SD of three independent experiments
[10] = Caco-2, Caco-2, 10 µM, 120 min, 37 °C, HBSS + 1%BSA, read-out: Mean Papp A to B
[11] = Caco-2, Caco-2, 10 µM, 120 min, read-out: Mean recovery % A to B
[12] = Caco-2, Caco-2, 10 µM, 120 min, read-out: Mean recovery % B to A
[13] = Caco-2, Caco-2 permeability class from Papp (A to B), read-out: Rank Papp

Chain of ALK-wt (Q9UM73 19-1620): as the sequence (Q9UM73 19-1620 L1196M) above, with M1178L counted along it

With `N#Cc1ccc(C(=O)Nc2n[nH]c3ncc(S(=O)(=O)c4cccc(F)c4)cc23)cc1` [10a, 4-Cyano-N-(5-((3-fluorophenyl)sulfonyl)-1H-pyrazolo[3,4-b]pyridin-3-yl)benzamide] the IC50 [1] was 453 nM.

In the case of `O=C(Nc1n[nH]c2ncc(S(=O)(=O)c3cccc(F)c3)cc12)c1cccc(C(F)(F)F)c1` [10b, N-(5-((3-Fluorophenyl)sulfonyl)-1H-pyrazolo[3,4-b]pyridin-3-yl)-3-(trifluoromethyl)benzamide], the “IC50 ALK-wt” value [1] is reported as “little to no activity”.

In the case of `O=C(Nc1n[nH]c2ncc(S(=O)(=O)c3cccc(F)c3)cc12)c1ccc(C(F)(F)F)cc1` [10c, N-(5-((3-Fluorophenyl)sulfonyl)-1H-pyrazolo[3,4-b]pyridin-3-yl)-4-(trifluoromethyl)benzamide], the “IC50 ALK-wt” value [1] is reported as “little to no activity”.

For `COc1ccc(C(=O)Nc2n[nH]c3ncc(S(=O)(=O)c4cccc(F)c4)cc23)cc1` [10d, N-(5-((3-Fluorophenyl)sulfonyl)-1H-pyrazolo[3,4-b]pyridin-3-yl)-4-methoxybenzamide], the IC50 [1] was 69 nM, the “activity against ALK-L1196M relative to crizotinib” value ([2]; IC50 19 nM vs 980 nM of crizotinib) was 50 fold and the IC50 [2] was 19 nM. For the same compound, the “GI50 H2228 (EML4-ALK)” value [3] was “Inactive”, the “GI50 Ba/F3 cell lines Parental” value [4] was “Inactive” and the “GI50 Ba/F3 cell lines ALK wt-TEL” value [5] was “Inactive”. The “GI50 Ba/F3 cell lines ALKL1196M-TEL” value [6, 9] was “Inactive”.

Work on `CN(C)c1ccc(C(=O)Nc2n[nH]c3ncc(S(=O)(=O)c4cccc(F)c4)cc23)cc1` [10e, 4-(Dimethylamino)-N-(5-((3-fluorophenyl)sulfonyl)-1H-pyrazolo[3,4-b]pyridin-3-yl)benzamide] yielded an IC50 [1] of 7.3 nM, an IC50 [2] of 0.7 nM and a GI50 [3] of 8.54 ± 0.78 µM. For the same compound, the “GI50 Ba/F3 cell lines Parental” value [4] was “Inactive”, the GI50 [5] was 1.77 ± 0.69 µM and the GI50 [6, 9] was 4550 ± 720 nM. The “differential cytotoxicity against ALK-L1196M Ba/F3 cells vs. parental Ba/F3 cells compared with crizotinib” value (“differential cytotoxicity” for short) [6] was “higher differential cytotoxicities”.

For `O=C(Nc1n[nH]c2ncc(S(=O)(=O)c3cccc(F)c3)cc12)c1ccc(N2CCOCC2)cc1` [10f, N-(5-((3-Fluorophenyl)sulfonyl)-1H-pyrazolo[3,4-b]pyridin-3-yl)-4-morpholinobenzamide], the “IC50 ALK-wt” value [1] was “Picomolar inhibitory activity”, the IC50 [2] was 1.4 nM and the GI50 [3] was 1.69 ± 0.4 µM. The “GI50 Ba/F3 cell lines Parental” value [4] was “Inactive”, the GI50 [5] was 0.916 ± 0.5 µM and the GI50 [6, 9] was 2530 ± 1500 nM. For the same compound, the “differential cytotoxicity” value [6] was “higher differential cytotoxicities”.

In the case of `CN1CCN(c2cccc(C(=O)Nc3n[nH]c4ncc(S(=O)(=O)c5cccc(F)c5)cc34)c2)CC1` [10h, N-(5-((3-Fluorophenyl)sulfonyl)-1H-pyrazolo[3,4-b]pyridin-3-yl)-3–(4-methylpiperazin-1-yl)benzamide], the “GI50 H2228 (EML4-ALK)” value [3] is reported as “Inactive”, the GI50 [4] is reported as 15.2 ± 0.52 µM and the GI50 [5] is reported as 3.35 ± 0.24 µM. The GI50 [6, 9] was 2280 ± 590 nM and the “differential cytotoxicity” value [6] was “higher differential cytotoxicities”.

For `CS(=O)(=O)Nc1ccc(C(=O)Nc2n[nH]c3ncc(S(=O)(=O)c4cccc(F)c4)cc23)cc1` [13c, N-(5-((3-Fluorophenyl)sulfonyl)-1H-pyrazolo[3,4-b]pyridin-3-yl)-4-(methylsulfonamido)benzamide], the GI50 [3] was 9.21 ± 1.92 µM, the “GI50 Ba/F3 cell lines Parental” value [4] was “inactive” and the GI50 [5] was 4.71 ± 3.02 µM. The GI50 [6, 9] was 5620 ± 2340 nM and the “differential cytotoxicity” value [6] was “higher differential cytotoxicities”.

With `C[C@H]1O[C@@H](O[C@H]2[C@@H](O)C[C@H](O[C@H]3[C@@H](O)C[C@H](O[C@H]4CC[C@@]5(C)[C@H](CC[C@@H]6[C@@H]5C[C@@H](O)[C@]5(C)[C@@H](C7=CC(=O)OC7)CC[C@]65O)C4)O[C@@H]3C)O[C@@H]2C)C[C@H](O)[C@@H]1O` [Digoxin] the Papp A→B at 120 min, 10 µM [7, 10] was 0.43 ×10⁻⁶ cm/s, the recovery at 120 min, 10 µM [7, 11] was 96.8% and the recovery at 120 min, 10 µM [7, 12] was 95.1%. For the same compound, the Papp A→B at 120 min, 10 µM [7, 13] was < 2.5 ×10⁻⁶ cm/s, the efflux ratio at 120 min, 10 µM ([7]; 120 min) was 20.2 and the Papp B→A at 120 min, 10 µM ([7]; 120 min, 37 °C, HBSS + 1%BSA) was 8.6 ×10⁻⁶ cm/s. For the same compound, the “Rank P-gp” value [8] was “Substrate”.

In the case of `CC(C)NCC(O)COc1cccc2ccccc12` (centres unmarked) [Propranolol], the Papp A→B at 120 min, 10 µM [7, 10] is reported as 16.1 ×10⁻⁶ cm/s, the recovery at 120 min, 10 µM [7, 11] is reported as 84.8% and the recovery at 120 min, 10 µM [7, 12] is reported as 91.7%. The Papp A→B at 120 min, 10 µM [7, 13] was > 10 ×10⁻⁶ cm/s, the efflux ratio at 120 min, 10 µM ([7]; 120 min) was 0.52 and the Papp B→A at 120 min, 10 µM ([7]; 120 min, 37 °C, HBSS + 1%BSA) was 8.42 ×10⁻⁶ cm/s.

In the case of `Nc1ccc(C(=O)Nc2n[nH]c3ncc(S(=O)(=O)c4cccc(F)c4)cc23)cc1` [compound 12, 4-Amino-N-(5-((3-fluorophenyl)sulfonyl)-1H-pyrazolo[3,4-b]pyridin-3-yl)benzamide], the GI50 [3] is reported as 4.03 ± 1.81 µM, the “GI50 Ba/F3 cell lines Parental” value [4] is reported as “Inactive” and the GI50 [5] is reported as 3.87 ± 1.54 µM. The GI50 [6, 9] was 1980 ± 280 nM and the “differential cytotoxicity” value [6] was “higher differential cytotoxicities”.

For `C[C@@H](Oc1cc(-c2cnn(C3CCNCC3)c2)cnc1N)c1c(Cl)ccc(F)c1Cl` [crizotinib, reference compound], the GI50 [4] was 1.65 ± 0.13 µM.
